Each structure is given as a SMILES string. “Also recorded” adds a separate entry of the source.

In experiment [1] the test system is intracellular calcium concentration. Description: Intracellular Ca2+ concentration, indo-1 (micro)spectrofluorimetry. The format is cell-based, human. How it is done:
Principle: [Ca^2+]i was measured by microspectrofluorimetry using a calcium sensitive fluorescent probe: indo-1. When excited at 360 nm wavelength, the so-called monoexcitation/double emission indo-1 probe transmitted back in a spectrum ranging from 400 to 500 nm. Binding of Ca^2+ to indo-1 caused displacement of the emission spectrum after excitation. The emission maximum in the unbound form was located around 480 nm. The emission of the complexed form was around 405 nm. An increase of calcium concentration thus caused the emission to increase to 405 nm and the emission to decrease to 480 nm. The ratio of both fluorescence intensities allowed to be independent from the quantity of the probe and to determine the [Ca^2+]i according to the Grynkiewicz equation:
[Ca^2+]i(nM)=Kd.β×(R−Rmin)/(Rmax−R)
Rmax, Rmin and Kd. β were determined by combining electrophysiology (patch clamp) and spectrofluorimetry. Rmax was determined by placing in the patch pipette a medium containing 10 mM CaCl2. Rmin was obtained by placing as an intrapipette solution a calcium-deprived medium (10 mM EGTA).
The cells were then rinsed with HBSS (800 rpm centrifugation for 2 minutes) and placed in an observation chamber on a glass coverslip. […] The excitation light is supplied by a Xenon lamp (100W). […] The substances to be tested were applied using a glass pipette positioned at some twenty μm of the studied cell and connected to a pneumatic system.
The principle as well as the loading of the cells were identical with the measurement on single cells. In such a case, approx. 40,000 cells were placed in a quartz tub under constant agitation. The tub was then placed in a Hitachi spectrofluorimeter whereof the excitation monochromator was set to 350 nm. […] The signals were transmitted to a computer via an analogue/digital converter. So as to be able to apply the Grynkiewicz equation (see above) and translate the fluorescence ratios measured in calcium values, the calibration parameters were entered into the software. The substances to be tested were applied directly in the tube under constant agitation.

The target in a further experiment is caspase-8. Description: Caspase-8 activation/cleavage. The format is cell-based, human.
Experiment [2] relates to CD95. Description: CD95 expression. Type of experiment: cell-based, human. To be noted: 2-APB or BAPTA-AM regimens. How it is done:
This technique allowed detecting the presence of a protein on the cell surface. All the steps took place at 4° C. so as to reduce membrane proteins endocytosis and loss of cell labelling.
Plasma membrane of the cells (10^6 cells per marking) was saturated for 5 minutes in 1 ml PBS containing 1% (w/v) BSA (bovine serum albumin) and 1% (v/v) foetal veal serum (FVS). This solution was used for washings and antibody dilutions.
The cells were incubated for 30 minutes with 50 μl primary antibody (anti-Fas DX2 clone at 10 μg/ml), washed twice with the PBS/BSA/FCS solution, then incubated with 50 μl of a secondary antibody coupled with phycoerythrin for 30 minutes. After 3 washings, the cells were re-suspended in 200 μl PBS/BSA/SVF and analysed immediately by flow cytometry (FACsCalibur, BD Biosciences). The fluorescence intensity was analysed with the Cellquest software.

Experiment [3] concerns T and B leukemia/lymphoma cell lines and activated PBLs treated with FasL. Description: Fas/CD95-mediated cell death (MTT test). The format is cell-based, human. Here is the method:
2 to 4.10^4 cells were deposited in wells in a 96-well plate. The cells were incubated, in the presence of the different reactants for the times specified, at 37° C. in a final volume of 100 or 200 μl.
The MTT test enabled to measure the activity of a mitochondrial enzyme, the dehydrogenase succinate which transforms MTT (or 3-(4,5-dimethylthiazol-2-yl)-2,5-diphenyltetrazolium) bromide originally yellow in colour and soluble, into blue formazan crystals, insoluble in aqueous phase. Upon completion of the different treatments, the living cells were quantified by adding in each well 15 μl PBS (Phosphate Buffered Saline) containing 5 mg/ml MTT. […] Spectrophotometric reading of absorbance was done at 570 nm. The measurement of the optical density is directly proportional to the number of living cells and the percentage of cell death was calculated with the following formula: 100-[(DO treated cells/DO non-treated cells)*100].

Experiment [4] relates to DISC macro-complex (Fas/FADD/Caspase-8). Description: DISC formation: Fas immunoprecipitation and Western blot. To be noted: H9, Jurkat, activated PBTs; non-cytotoxic concentrations; vs untreated cells. The format is cell-based, human. How it is done:
Cells were incubated with 1 μg/ml APO1-3 for 30 minutes at 4° C. After washing, cells were incubated for 15 minutes at 4° C. (0 minutes) or at 37° C. (15 minutes) and then lysed for 30 minutes at 4° C. in a lysis buffer (25 mM HEPES pH 7.4, 1% Triton X-100, 150 mM NaCl, 2 mM EDTA, a cocktail including protease inhibitors (Sigma)). The lysed cells were then centrifugated for 15 minutes at 15000 rpm in order to eliminate genomic DNA, and the supernatant was kept. The sepharose beads which were coupled with protein A were added to the lysate and the mixture was incubated for 2 hours. The beads were recovered, washed intensively and the immunoprecipitated proteins were re-suspended in a denaturing and reducing buffer (0.01M Tris-HCl pH6.8, 10% glycerol (v/v), 85 mM sodium dodecyl sulfate (SDS), 5% (v/v) […] and 0.005% (w/v) bromophenol blue) then heated at 100° C. for 5 minutes. The samples were deposited in an acrylamide/Bisacrylamide gel and separated by electrophoresis. The proteins were transferred from the gel into a nitrocellulose membrane using a semi-dry medium transfer technique for 2 hours at constant amperage (0.8 mA/cm^2). […] After transfer, the nitrocellulose membrane was saturated with proteins for 30 minutes with a TBST buffer (50 mM Tris pH=8, 0.15M sodium chloride, 0.05% (v/v) Tween-20) containing 5% (w/v) skimmed powdered milk (TBSTM). After washing with TBST, the membrane was incubated for 2 hours with the primary antibody in TBST. The membrane was washed intensively then incubated for one hour with TBST containing the secondary peroxidase-coupled antibody. […] This solution contained a substrate metabolised by peroxidase to yield a luminescent compound, which allowed marking a radiographic film (Amersham).
For orientation: In western blotting, separated proteins are transferred to a membrane and probed.

Experiment [5] relates to CD95. Description: CD95 capping (CD95-CAP), fluorescence confocal microscopy. Type of experiment: cell-based, human. The following applies: leukemic cell lines; culture up to 24 hours. How it is done:
The cells were left to adhere on a slide pre-treated with poly-L-lysin (ESCO, VWR) for 5 minutes then incubated with the different reactants. The cells activated with the anti-Fas APO1-3 agonist antibody were washed and marked directly with the anti-mouse secondary antibody coupled with Alexa555 fluorochrome. The cells incubated with Rituximab (anti-CD20) were washed in a cold PBS buffer then fixed with a PBS/4% PFA (paraformaldehyde) solution for 15 min. […] The cells were washed in PBS medium then the slide was dried and the cells were placed in a mounting medium, Fluoroprep (Biomerieux) and analysed by fluorescence confocal microscopy (LSM SP5, Leica, Germany) with an x63 zoom. The DAPI (200 ng/ml) allowed colouring the nuclei.

Another experiment concerns Raji cells. Description: Raji B lymphoma tumour growth in Rag2-/-γ-/- mice. Type of experiment: in vivo. The following applies: Raji s.c.; single agent; Rituximab 2 mg/kg, Zoledronate 4 mg/kg. Here is the method: The implantation of the tumours was done subcutaneously in Rag2−/−γ−/− mice flank aged from 5 to 7 weeks. Following implantation of the tumours, the mice were divided in groups of 8 to 10 animals for each treatment. The size of the tumour was assessed every day by measuring its width (w) and its length (I). Its volume was calculated according to the formula: V=lw^2/2. At the end of the experiment, the animals were sacrified, the tumour weight was measured.
From 10^6 Raji cells were implanted subcutaneously in mice flank. The effects of Rituximab alone, of Zoledronate alone, are assessed on the growth of tumours. Rituximab (2 mg/kg) was delivered 3 times a week, Zoledronate was delivered 1 time a week.

In experiment [6] the test system is Raji, BL2, Jurkat cell lines and activated PBL. Description: Apoptosis % by loss of mitochondrial membrane potential. To be noted: Zoledronate 10 μM in vitro; BL2, Raji and Jurkat, respectively. Type of experiment: cell-based, human. Here is the method: 2 to 4.10^4 cells were deposited in wells in a 96-well plate. The cells were incubated, in the presence of the different reactants for the times specified, at 37° C. in a final volume of 100 or 200 μl. The apoptotic cells were identified in the cellular populations by measuring mitochondrial de-polarisation. […] These potentiometric probes allowed monitoring the variations of the mitochondrial membrane potential. […] Following cell treatment with the different drugs, the former were placed in the presence of TMRM or DIOC6 at 10 nM concentration, for 20 minutes at 37° C. then the fluorescence of the cells was analysed by flow cytometry.

The nature of experiment [7]: Mice calcemia after Zoledronate injection. The format is in vivo. The following applies: 4 mg/kg, one injection per week, 4 weeks, blood 3 days after last injection. Here is the method: Blood samples were taken from mice 3 days after the last Zoledronate or vehicle injection and calcemia was assessed by COBAS INTEGRA Calcium® (Roche) micro-method.

With `NCCOB(c1ccccc1)c1ccccc1` [2-APB, 2-Aminoethoxydiphenyl borate], the “increase in intracellular calcium induced by Thapsigargin and by extracellular calcium 0 to 5 mM” value in experiment [1] (2-APB 44 μM) is “reduced the increase in the intracellular calcium concentration”. For the same molecule, the “concentration of intracellular calcium” value in experiment [1] (high doses of 2-APB, T or B lymphoma cell lines) is given as “induced decreasing concentration of intracellular calcium”. Also, in experiment [1] (non-cytotoxic concentrations, CD95 stimulation), the “CD95-mediated peak of calcium” value is “totally abrogated the CD95-mediated peak of calcium”. Further, the “basal [Ca2+]i” value in experiment [1] (pre-incubation of cells) was “induced a faint decrease in the basal [Ca^2+]i”. Further, the “kinetic of caspase-8 cleavage upon CD95L” value on caspase-8 (T and B-cell lines) was “accelerated the cleavage of the initiator caspase-8”. The “caspase-8 activation or mitochondrial depolarization by the agent alone” value in the experiment with caspase-8 (during 60 minutes treatment, no CD95L) is given as “no trace of caspase-8 activation or mitochondrial depolarization was detected”. Also, the “expression of CD95” value in the experiment with CD95 [2] was “did not modify the expression of CD95”. Further, the “CD95-mediated apoptotic signal in CD95-resistant cells” value in experiment [3] (Jurkat-CD95Q257K, pre-incubation with non-cytotoxic doses) is listed as “restored the CD95-mediated apoptotic signal at a level comparable to the parental cell line”. Besides, the “potentiation of FasL response” value in experiment [3] (high doses of 2-APB (44 μM), T or B lymphoma/leukemic cell lines) was “potentiated FasL response; also recorded: sensitizes drastically the Fas apoptotic signal”. Also, the “apoptotic signal by the agent alone” value in experiment [3] (leukemic cell lines, long-term culture up to 24 hours, no CD95L) was “did not trigger the apoptotic signal”. Also, the “DISC formation / FADD recruitment upon CD95 stimulation” value in experiment [4] is “dramatically improved the DISC formation; also recorded: induction of DISC formation”. In addition, the CD95-CAP formation entry in the experiment on CD95 [5] is given as “drives CD95-CAP”.

On to `O=P(O)(O)C(O)(Cn1ccnc1)P(=O)(O)O` [Zoledronate, zoledronate], for which the intracellular calcium concentration entry in [1] (Zoledronate in vitro, all model cell lines tested) is reported as “did not affect intracellular calcium concentration”. In the experiment with Raji cells, the “tumour mass vs vehicle” value is given as “not significantly affected”. Also, the “potentiation of apoptotic response to TRAIL, RTX and FasL” value in experiment [6] is listed as “does not potentiate the apoptotic response”. Besides, the calcemia vs vehicle result in [7] is given as “significant (p<0.05) decrease in their calcemia”.
